# Results taken from patent US12358918B2, “Aryl hydrocarbon receptor (AHR) activator compounds as cancer therapeutics” (THE BROAD INSTITUTE, INC., priority 2018, dated 2025).
# Assays:
# [1] = system: MDA-MB-231 breast cancer cell lines; test: cytotoxicity, control cells vs cells overexpressing CYP1A1; format: cell-based
# From the text: The dependence of each compound's cytotoxic effects upon CYP1A1 was also examined, via screening of MDA-MB-231 breast cancer cell lines for cytotoxic response. The CYP1A1-dependence of the cytotoxic response of to each tested compound was specifically determined by comparing the cytotoxicity of each compound administered to control cells with that of the compound administered to corresponding cells that overexpressed CYP1A1. […]
# [2] = system: MDA-MB-468 and ZR51 breast cancer and JHH7 liver cancer cell lines
Structure (SMILES),CYP1A1-dependence of the cytotoxic response [1],AHR-dependence of the cytotoxic response [2]
Cc1nc2ccc(Cl)cc2c2nc(-c3ccco3)nn12 [B2],CYP1A1-dependent cytotoxic,dependence upon AHR
"CSc1nc2ccccc2c2nc(-c3ccco3)nn12 [2-(2-furyl)-5-(methylsulfanyl)[1,2,4]triazolo[1,5-c]quinazoline]",CYP1A1-dependent cytotoxic,dependence upon AHR
"Nc1nc2ccc(F)cc2c2nc(-c3ccco3)nn12 [BRO-023, 9-fluoro-2-(furan-2-yl)-[1,2,4]triazolo[1,5-c]quinazolin-5-amine]",CYP1A1-dependent cytotoxic,dependence upon AHR
Cc1nc2ccccc2c2nc(-c3ccoc3)nn12 [Z1222312995],CYP1A1-dependent cytotoxic,dependence upon AHR
Cc1nc2cccc(C(F)(F)F)c2c2nc(-c3ccco3)nn12 [B3],CYP1A1-dependent cytotoxic,dependence upon AHR
"O=c1[nH]c2ccccc2c2nc(-c3ccco3)nn12 [2-(2-furyl)[1,2,4]triazolo[1,5-c]quinazolin-5(6H)-one]",CYP1A1-dependent cytotoxic,dependence upon AHR
Nc1nc2cccc(F)c2c2nc(-c3ccco3)nn12 [A17],CYP1A1-dependent cytotoxic,dependence upon AHR
COc1cccc2nc(N)n3nc(-c4ccco4)nc3c12 [A16],CYP1A1-dependent cytotoxic,dependence upon AHR
"Nc1nc2cc(Cl)ccc2c2nc(-c3ccco3)nn12 [BRO-026, 8-chloro-2-(furan-2-yl)-[1,2,4]triazolo[1,5-c]quinazolin-5-amine]",CYP1A1-dependent cytotoxic,dependence upon AHR
COc1ccc2nc(N)n3nc(-c4ccco4)nc3c2c1 [A15],CYP1A1-dependent cytotoxic,dependence upon AHR
"O=C1NC(=O)c2c1c1c3ccccc3[nH]c1c1[nH]c3ccccc3c21 [Arcyriaflavin A, reference compound]",CYP1A1-dependent cytotoxic,dependence upon AHR
Nc1nc2cccc(C(F)(F)F)c2c2nc(-c3ccco3)nn12 [A2],CYP1A1-dependent cytotoxic,dependence upon AHR
"O=Cc1c2[nH]c3ccccc3c2cc2[nH]c3ccccc3c12 [FICZ, reference compound]",CYP1A1-dependent cytotoxic,dependence upon AHR
"Nc1nc2cccc(Cl)c2c2nc(-c3ccco3)nn12 [BRO-027, 10-chloro-2-(furan-2-yl)-[1,2,4]triazolo[1,5-c]quinazolin-5-amine]",CYP1A1-dependent cytotoxic,dependence upon AHR
"Sc1nc2ccccc2c2nc(-c3ccco3)nn12 [2-(2-furyl)[1,2,4]triazolo[1,5-c]quinazolin-5-yl hydrosulfide]",CYP1A1-dependent cytotoxic,dependence upon AHR
"COc1ccc(CCCn2ncc3c2nc(N)n2nc(-c4ccco4)nc32)cc1 [SCH 442416, reference compound]",CYP1A1-dependent cytotoxic,dependence upon AHR
"CC(C)c1ccc2nc(N)n3nc(-c4ccco4)nc3c2c1 [BRO-025, 2-(furan-2-yl)-9-isopropyl-[1,2,4]triazolo[1,5-c]quinazolin-5-amine]",CYP1A1-dependent cytotoxic,dependence upon AHR
Cc1nc2cccc(Cl)c2c2nc(-c3ccco3)nn12 [B1],CYP1A1-dependent cytotoxic,dependence upon AHR
